From the METLIN SMRT retention time set (Domingo-Almenara et al. 2019)

experiment: gradient 5% acetonitrile 3 min, to 50% in 2 min, to 85% in 15 min, held 3 min, 100 µL/min; settings: column: Zorbax Extend-C18 2.1 x 50 mm; eluents: water / acetonitrile, 0.1% formic acid
Summary of the method: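 Each retention time is based on an adduct peak selected computationally and verified by manual inspection. Measurements used HPLC–quadrupole time-of-flight mass spectrometry in positive and negative ionization mode on mixtures of ~100 pure standards. Chromatography ran on a Zorbax Extend-C18 column (2.1 × 50 mm, 1.8 μm) at 100 μL/min with water and acetonitrile, each containing 0.1% formic acid, and dead and dwell volumes of 40 μL and 900 μL.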

Point of comparison: `O=C(NCc1ccccc1F)C1=C2CCCN2c2ccccc2S1(=O)=O`, RP-LC retention time 818 s. Against it:
- Cc1nc(-c2nc(-c3cccs3)cs2)cn1CC(=O)Nc1cccc(F)c1 — lower, 814 s
- Cc1noc(C)c1CNC(=O)COc1ccc(F)cc1 — lower, 711 s
- CC(C)NC(=O)C1CCN(C(=O)c2ncn3c2COC(c2ccccc2)C3)CC1 (configuration not stated) — lower, 686 s
- Cc1cc(NC(=O)N(C)Cc2nc3cc(C(=O)N(C)C)ccc3n2C)ccc1Br — lower, 662 s
- CCn1nccc1-c1cccc(-c2noc(-c3ccc(F)c(F)c3)n2)c1 — higher, 1270 s
- c1ccc2c(c1)CCC[C@H]2Nc1nc2ccccc2[nH]1 — lower, 705 s
- COc1cccc(Cn2cc(S(=O)(=O)N3CCCCC3)ccc2=O)c1 — higher, 882 s
- Cc1ccccc1-c1noc(Cn2c(=O)n(-c3ccccc3C)c(=O)c3sccc32)n1 — higher, 1050 s
- O=C(Cc1cccs1)N1CCN(c2ccc(-c3noc(C4CC4)n3)cc2)CC1 — higher, 934 s
- Cc1[nH]c2ccccc2c1C(=O)C(=O)NC1CCCCC1 — lower, 798 s
- COc1ccc(OC)c(Nc2nc(NCC3CCCO3)nc(N)c2[N+](=O)[O-])c1 (configuration not stated) — lower, 810 s
- O=C(C1CCCN(c2cnc3nccnc3c2)C1)N1CCN(c2ccccc2F)CC1 (configuration not stated) — lower, 778 s
- COc1ccc(Cc2nnc(C3CCN(C(=O)Cc4cccs4)CC3)s2)cc1 — lower, 745 s
- O=C(Cn1nc2c3cc(-c4ccc(F)cc4)nn3ccn2c1=O)Nc1ccc(Br)cc1 — higher, 923 s
- Cc1cc(C(F)(F)F)nn1CC(=O)N1CCC(n2c(C)cnc2C2CCC2)C1 (configuration not stated) — lower, 656 s
- COc1ccccc1-c1noc(C2CCCN2C(=O)Nc2ccc(Cl)cc2)n1 (configuration not stated) — higher, 920 s
- Cc1cc(-c2nnc(-c3ccc(F)cc3)o2)c(C)n1CC(=O)NCc1cc(F)cc(F)c1 — higher, 992 s
- COc1cccc(Nc2nnc(CC(=O)N3CCSCC3)s2)c1 — lower, 676 s
- CCCn1c(C)cnc1C1CN(S(=O)(=O)c2ccccc2)C1 — lower, 565 s
- CCc1ccc(NC(=O)N2C[C@@H]3CN(S(=O)(=O)c4ccccc4)C[C@H](C2)O3)cc1 — higher, 851 s
- O=C(Cn1c(=O)c(=O)n(Cc2ccncc2)c2ncccc21)NC1CCCCCCC1 — lower, 646 s
- Cc1ccc(S(=O)(=O)N2CCCN(c3ccc(=O)n(-c4ccccc4)n3)CC2)c(C)c1 — higher, 916 s
- O=C(Cn1c(=O)c2cccn2c2ccccc21)NCCCN1CCCCCC1 — lower, 612 s
- CCn1c(=O)sc2cc(S(=O)(=O)N3CCC(C(=O)Nc4ccc(C)cn4)CC3)ccc21 — lower, 735 s
- O=C(Cn1nc(C2CC2)cc1C(=O)N1CCCC1)Nc1ccccc1 — lower, 740 s
- CCc1ccc(N2C(=O)CN(CCc3ccccc3F)[C@H]3CS(=O)(=O)C[C@H]32)cc1 — higher, 904 s
- CCc1ccc(NS(=O)(=O)c2cc(-c3[nH]ncc3C(=O)N3CCOCC3)oc2C)cc1 — lower, 721 s
- C=Cc1ccc(Cn2nc3ccc(S(=O)(=O)N4CCOCC4)cn3c2=O)cc1 — higher, 864 s
- CSc1ccc(CC(=O)Nc2nnc(-c3cc(C)n(C)n3)o2)cc1 — lower, 669 s
- Cc1ccsc1CN1CCC(c2nc(-c3cnccn3)n[nH]2)CC1 — lower, 567 s
- COc1ccc(S(=O)(=O)CC(=O)Nc2nnc(-c3cc(C)oc3C)o2)cc1 — lower, 721 s
- O=C(CN1C(=O)C(C(=O)N2CCCC2)Sc2ccccc21)N1CCN(Cc2ccccc2)CC1 (configuration not stated) — lower, 625 s
- CCOc1ccc(NC(=O)Cn2c(=O)n(-c3ccc(F)cc3)c(=O)c3c2cc(C)n3C)cc1 — higher, 866 s
- CCOC(=O)c1noc2nc(C)nc(NCCCN3CCN(c4cccc(C)c4)C(C)C3)c12 (configuration not stated) — lower, 739 s
- COc1cccc(CC(=O)N2CCC(c3cc(N)on3)CC2)c1 — lower, 663 s
- COc1ccc(NC(=O)CN2C(=O)C(C)(C)c3ccccc32)c(OC)c1 — higher, 869 s
- COc1ccc(Cc2nnc(SCC(=O)Nc3nc(-c4ccccc4)cs3)o2)cc1 — higher, 985 s
- CCc1nc(-c2ccc3c(c2)CCN3C(=O)Cc2ccc(F)cc2)no1 — higher, 1030 s
- CC(C)CCNC(=O)c1ccc2ncnc(N3CCCC3)c2c1 — lower, 635 s
- COc1cc(NC(=O)N2CC3CCCN3c3ccccc32)cc(OC)c1OC (configuration not stated) — lower, 702 s
- COc1ccc(NC(=O)Cn2nc3nc(N4CCCC(C)C4)ccn3c2=O)cc1F (configuration not stated) — lower, 775 s
- COc1ccc(NC(=O)NC2CCN(c3ccc(C)c(C)c3)C2=O)cc1 (configuration not stated) — higher, 821 s
- CN(C)S(=O)(=O)N(CC(=O)Nc1ccccc1C(F)(F)F)c1ccccc1 — higher, 972 s
- COCCNC(=O)C1CCN(c2cnc(N3CCCC3)nc2)CC1 — lower, 580 s
- Cc1sc(C)c(S(=O)(=O)N2CCCc3ccccc32)c1-c1cc(C(F)(F)F)on1 — higher, 1290 s
- CC1CCC2(CC1)NC(=O)N(CC(=O)Nc1ccccc1Cl)C2=O (configuration not stated) — higher, 858 s
- Cc1ccc(S(=O)(=O)N2CC(Cc3nncn3C3CCCC3)C2)cc1Cl — lower, 795 s
- O=S(=O)(NCc1ccc(F)cc1)c1ccccc1-c1nc(-c2ccc(F)cc2)no1 — higher, 1180 s
- O=S(=O)(c1ccc(-c2noc(-c3ccc(Cl)cc3)n2)cc1)N1CCOCC1 — higher, 1160 s
- O=C(CN1C(=O)CCCc2cc(S(=O)(=O)N3CCCC3)ccc21)Nc1ccc(F)cc1Cl — higher, 857 s
- CCC(=O)O[C@]1(C(=O)CO)CC[C@H]2[C@@H]3CCC4=CC(=O)CC[C@]4(C)[C@H]3CC[C@@]21C — higher, 1060 s
- CN(C)c1ccc(-c2nc3cnccn3c2Nc2cccc(Cl)c2)cc1 — higher, 879 s
- CCn1c(=O)c(N2CCC(C(=O)NCCCN3CCCCC3C)CC2)nc2cccnc21 (configuration not stated) — lower, 632 s
- O=C(Cn1cnc2ccccc2c1=O)N[C@H](C(=O)O)c1ccccc1 — lower, 642 s
- CCn1cc(CC(=O)NCc2ccc3c(c2)OCO3)c2cccnc21 — lower, 690 s
- CCc1nc(-c2ccc(-c3noc(CNS(=O)(=O)c4ccc(Cl)cc4)n3)cc2)cs1 — higher, 1110 s
- Cc1ccc(-c2nc(NC(=O)/C=C/c3ccc(Cl)cc3)sc2C)cc1 — higher, 1300 s
- CCOc1ccccc1NC(=O)N1CCCC(Cn2c(C)nc3cccnc32)C1 (configuration not stated) — lower, 618 s
- Cc1c(C(=O)C(=O)NCc2ccccn2)c2ccccc2n1C — lower, 625 s
- Cc1noc(CNC(=O)CN(C)c2nc3c(F)cccc3s2)n1 — lower, 667 s
- Cc1ccn2cc(-c3ccc(NC(=O)c4cccc(C(F)(F)F)c4)cc3)nc2n1 — lower, 716 s
- C=CCn1c(=O)c2ccccc2n(Cc2nc(-c3ccccc3C)no2)c1=O — higher, 1080 s
- Cc1cc2nnc(SCC(=O)c3cc(C)n(CC4CCCO4)c3C)n2c2ccccc12 (configuration not stated) — lower, 784 s
- CCOC(=O)c1noc2ncnc(NCc3cccc(OC)c3)c12 — higher, 971 s
- Cc1ccc(Cl)cc1NC(=O)c1cc2ccccc2cc1O — higher, 1180 s
- Fc1ccccc1-c1nc2ccccc2[nH]1 — lower, 592 s
- Cc1cc(NC(=O)CSc2nc3ccccc3o2)sn1 — lower, 726 s
- Cc1ccc(C)c(CS(=O)(=O)N2CCc3nc(-c4ccc(F)cc4)ncc3C2)c1 — higher, 1160 s
- O=C(Cc1nnc(-c2cnccn2)o1)Nc1ccccc1Cl — lower, 681 s
- N#Cc1cc2c(nc1SCC(=O)Nc1nc(-c3ccccc3)cs1)CCCC2=O — higher, 1020 s
- CCOc1cccc(-c2noc(Cn3c(=O)n(-c4cccc(F)c4)c(=O)c4sccc43)n2)c1 — higher, 1040 s
- CC(C)CCNC(=O)Cn1c(=O)c(S(=O)(=O)c2ccccc2)cc2ccccc21 — higher, 866 s
- Cc1cc(C)cc(NC(=O)C2CCN(S(=O)(=O)c3ccc4c(c3)sc(=O)n4C(C)C)CC2)c1 — higher, 1070 s
- CCN1CCn2cc(S(=O)(=O)Nc3ccc(C)cc3)cc2C1=O — lower, 723 s
- C=CCN1CCN(C(=O)[C@@H]2[C@H](c3cc(OC)c(OC)c(OC)c3)c3cc4c(cc3[C@H](O)[C@H]2CO)OCO4)CC1 — lower, 604 s
- COc1ccc(NS(=O)(=O)c2ccc(/C=C\c3onc(C)c3NC(C)=O)cc2)cc1 — lower, 779 s
- CC(=O)N1CCc2c([nH]c3ccccc23)C12C(=O)Nc1ccccc12 (configuration not stated) — lower, 721 s
- COc1ccc(C)cc1NC(=O)C1CCN(S(=O)(=O)c2cn(C)cn2)CC1 — lower, 666 s
- COc1ccccc1N1CCN(CCNC(=O)NCc2cccs2)CC1 — lower, 586 s
- CC1CCCCN1c1cc(-n2cnc(C(=O)Nc3ccc4c(c3)OCCO4)c2)ncn1 (configuration not stated) — higher, 1040 s
- CCc1nc(-c2csc(S(=O)(=O)N3CCCC(C(=O)Nc4ccccc4Cl)C3)c2)no1 (configuration not stated) — higher, 1020 s
- O=C(CCc1conc1-c1ccc(F)cc1)N1CCN(c2ccc(Cl)cc2)CC1 — higher, 1090 s
- CSc1ccc(CNC(=O)C2CCCN(c3ncnc4nn(-c5ccc(C)cc5)cc34)C2)cc1 (configuration not stated) — lower, 750 s
- CCOC(=O)C1CCN(Cc2nc(-c3ccc(N4CCCCC4)nc3)no2)CC1 — lower, 664 s
- O=C(NCCc1csc(-c2cccs2)n1)C1CCN(S(=O)(=O)c2ccc(F)cc2)CC1 — higher, 882 s
- Nc1sc(SCC(=O)NCc2ccc(F)cc2)nc1-c1ccccc1 — lower, 796 s
